# Test results from patent US20190192699A1, “NUCLEAR IMAGING AND RADIOTHERAPEUTICS AGENTS TARGETING CARBONIC ANHYDRASE IX AND USES THEREOF” (THE JOHNS HOPKINS UNIVERSITY, priority 2016, published 2019).
# “And” between values parts separate entries of the source, which are not always exact repeats. Equal values may be shown once. “Also recorded” adds a separate entry of the source.
# Assays:
# [1] = test system: CAIX-expressing SK-RC-52 tumors; test: PET/CT imaging of [64Cu]XYIMSR-06; format: in vivo, mice; conditions: 22.2 MBq (600 μCi) via tail vein
# Description: (§1) Cell Lines and Mouse Models. Animal experiments were performed in accordance with protocols approved by the Johns Hopkins Animal Care and Use Committee (ACUC). Six-week-old female NOD/SCID mice were purchased from the Animal Resource Core of the Sidney Kimmel Comprehensive Cancer Center of Johns Hopkins and were subcutaneously injected in the lower left flank or upper right flank with 1×10^6 SK-RC-52 cells in RPMI 1640 GlutaMAX™ media (Life Technologies, Frederick, Md.) supplemented with 1% fetal bovine serum (FBS). Mice were monitored for tumor size and used for SPECT/CT imaging when the size of the tumor reached 100 mm^3.
# PET/CT imaging of [^64Cu]XYIMSR-06. Mice harboring subcutaneous SK-RC-52 tumors within the upper right flank were injected intravenously (tail vein) with 22.2 MBq (600 μCi) of [^64Cu]XYIMSR-06 in 250 μL of PBS (pH=7.0). Anesthesia was then induced with 3% isoflurane and maintained with 2% isoflurane. Physiologic temperature was maintained with an external light source while the mouse was on the gantry. Whole body, 2-bed PET/CT imaging was performed using the SuperArgus small animal PET/CT scanner (Sedecal, Madrid, Spain), […] a 250-700 keV energy window. PET acquisition times were: 5 min/bed position (1 h post-injection of [^64Cu]XYIMSR-06); 10 min/bed position (4 and 8 h) and 20 min/bed position (24 h). […]
# SK-RC-52 xenografts = test: Biodistribution of [64Cu]XYIMSR-06; format: in vivo, mice
# Description: as §1
# Biodistribution of [^64Cu]XYIMSR-06. Mice bearing SK-RC-52 xenografts within the upper right flank were injected intravenously with 740 kBq (20 μCi) of [^64Cu]XYIMSR-06 in 200 μL of PBS. For in vivo competition (binding specificity) studies, tumor-bearing mice were injected with 740 kBq (20 μCi) of [^64Cu]XYIMSR-06 and 200 nmole of 1 in 200 μL of PBS concurrently. At specific times after injection (1 h, 4 h, 8 h and 24 h), mice (n=5) were sacrificed by cervical dislocation with blood immediately collected by cardiac puncture. Heart, lungs, pancreas, spleen, fat, brain, muscle, small intestines, liver, stomach, kidney, urinary bladder, and tumor were also collected. Each organ was weighed and the tissue radioactivity was measured with an automated gamma counter (1282 Compugamma CS, Pharmacia/LKBNuclear, Inc., Mt. Waverly, Vic. Australia). The percentage of injected dose per gram of tissue (% ID/g) was calculated by comparison with samples of a standard dilution of the initial dose. All measurements were corrected for radioactive decay. Data were expressed as mean±standard deviation (SD). Prism software (GraphPAD, San Diego, Calif.) was used to determine statistical significance. Statistical significance was calculated using a paired t test. P-values […] were considered significant.
# [2] = 8 h + block (200 nmole of 1 co-injected)
smiles,measurement,setting,value
CC(CCC(=O)N[C@@H](CC(=O)N[C@@H](CC(=O)N[C@@H](CCCCn1cc(CCCC(=O)Nc2nnc(S(N)(=O)=O)s2)nn1)C(=O)NCCOCCOCCNC(=S)Nc1ccc(CC2CN(CC(=O)[O-])CCN(CC(=O)[O-])CCN2CC(=O)O)cc1)C(=O)O)C(=O)O)(c1ccc(O)cc1)c1ccc(O)cc1.[64Cu+2] (some centres unmarked) [[^64Cu]XYIMSR-06],PET/CT tumor imaging finding,[1],"radiotracer uptake in tumor as early as 1 h post-injection; also recorded: At 1 h, tumor could be observed distinctly"
same,Biodistribution: Bladder,SK-RC-52 xenografts; 1 h post-injection,11.12 ± 6.33 % ID/g
same,Biodistribution: Blood,SK-RC-52 xenografts; 1 h post-injection,0.66 ± 0.05 % ID/g
same,Biodistribution: Brain,SK-RC-52 xenografts; 1 h post-injection,1.46 ± 2.23 % ID/g
same,Biodistribution: Fat,SK-RC-52 xenografts; 1 h post-injection,0.80 ± 0.17 % ID/g
same,Biodistribution: Heart,SK-RC-52 xenografts; 1 h post-injection,3.41 ± 0.79 % ID/g
same,Biodistribution: Kidney (kid),SK-RC-52 xenografts; 1 h post-injection,33.65 ± 3.91 % ID/g
same,Biodistribution: Liver,SK-RC-52 xenografts; 1 h post-injection,3.25 ± 0.97 % ID/g
same,Biodistribution: Lung,SK-RC-52 xenografts; 1 h post-injection,25.52 ± 3.35 % ID/g
same,Biodistribution: Muscle (mm),SK-RC-52 xenografts; 1 h post-injection,1.28 ± 0.27 % ID/g
same,Biodistribution: Pancreas,SK-RC-52 xenografts; 1 h post-injection,2.94 ± 0.24 % ID/g
same,Biodistribution: Sm. intestine,SK-RC-52 xenografts; 1 h post-injection,7.35 ± 0.78 % ID/g
same,Biodistribution: Spleen,SK-RC-52 xenografts; 1 h post-injection,0.36 ± 0.08 % ID/g
same,Biodistribution: Stomach,SK-RC-52 xenografts; 1 h post-injection,14.80 ± 2.27 % ID/g
same,Biodistribution: Tumor,SK-RC-52 xenografts; 1 h post-injection,14.5 % ID/g and 14.47 ± 2.69 % ID/g
same,Tumor/kid (kidney) ratio,SK-RC-52 xenografts; 1 h post-injection,0.4 ± 0.1
same,Tumor/mm (muscle) ratio,SK-RC-52 xenografts; 1 h post-injection,10.8 ± 3.7
same,Biodistribution: Bladder,SK-RC-52 xenografts; 4 h post-injection,17.05 ± 8.86 % ID/g
same,Biodistribution: Blood,SK-RC-52 xenografts; 4 h post-injection,0.33 ± 0.06 % ID/g
same,Biodistribution: Brain,SK-RC-52 xenografts; 4 h post-injection,0.29 ± 0.06 % ID/g
same,Biodistribution: Fat,SK-RC-52 xenografts; 4 h post-injection,0.52 ± 0.29 % ID/g
same,Biodistribution: Heart,SK-RC-52 xenografts; 4 h post-injection,1.78 ± 0.33 % ID/g
same,Biodistribution: Kidney (kid),SK-RC-52 xenografts; 4 h post-injection,19.99 ± 2.88 % ID/g
same,Biodistribution: Liver,SK-RC-52 xenografts; 4 h post-injection,2.18 ± 0.57 % ID/g
same,Biodistribution: Lung,SK-RC-52 xenografts; 4 h post-injection,12.03 ± 1.61 % ID/g
same,Biodistribution: Muscle (mm),SK-RC-52 xenografts; 4 h post-injection,0.70 ± 0.18 % ID/g
same,Biodistribution: Pancreas,SK-RC-52 xenografts; 4 h post-injection,1.36 ± 0.19 % ID/g
same,Biodistribution: Sm. intestine,SK-RC-52 xenografts; 4 h post-injection,4.15 ± 0.69 % ID/g
same,Biodistribution: Spleen,SK-RC-52 xenografts; 4 h post-injection,0.24 ± 0.04 % ID/g
same,Biodistribution: Stomach,SK-RC-52 xenografts; 4 h post-injection,8.19 ± 0.97 % ID/g
same,Biodistribution: Tumor,SK-RC-52 xenografts; 4 h post-injection,19.3 % ID/g and 19.31 ± 4.51 % ID/g
same,Tumor/Blood ratio,SK-RC-52 xenografts; 4 h post-injection,57.7 ± 9.3
same,Tumor/kid (kidney) ratio,SK-RC-52 xenografts; 4 h post-injection,1.0 ± 0.1
same,Tumor/mm (muscle) ratio,SK-RC-52 xenografts; 4 h post-injection,29.4 ± 9.9
same,Biodistribution: Bladder,SK-RC-52 xenografts; [2],1.45 ± 1.53 % ID/g
same,Biodistribution: Blood,SK-RC-52 xenografts; [2],0.08 ± 0.01 % ID/g
same,Biodistribution: Brain,SK-RC-52 xenografts; [2],0.04 ± 0.01 % ID/g
same,Biodistribution: Fat,SK-RC-52 xenografts; [2],0.05 ± 0.01 % ID/g
same,Biodistribution: Heart,SK-RC-52 xenografts; [2],0.16 ± 0.03 % ID/g
same,Biodistribution: Kidney (kid),SK-RC-52 xenografts; [2],1.82 ± 0.39 % ID/g
same,Biodistribution: Liver,SK-RC-52 xenografts; [2],0.55 ± 0.08 % ID/g
same,Biodistribution: Lung,SK-RC-52 xenografts; [2],0.77 ± 0.14 % ID/g
same,Biodistribution: Muscle (mm),SK-RC-52 xenografts; [2],0.05 ± 0.02 % ID/g
same,Biodistribution: Pancreas,SK-RC-52 xenografts; [2],0.14 ± 0.03 % ID/g
same,Biodistribution: Sm. intestine,SK-RC-52 xenografts; [2],0.38 ± 0.06 % ID/g
same,Biodistribution: Spleen,SK-RC-52 xenografts; [2],0.14 ± 0.02 % ID/g
same,Biodistribution: Stomach,SK-RC-52 xenografts; [2],0.69 ± 0.18 % ID/g
same,Biodistribution: Tumor,SK-RC-52 xenografts; [2],2.39 ± 0.24 % ID/g
same,Tumor/Blood ratio,SK-RC-52 xenografts; [2],32.0 ± 3.8
same,Tumor/kid (kidney) ratio,SK-RC-52 xenografts; [2],1.3 ± 10.2
same,Tumor/mm (muscle) ratio,SK-RC-52 xenografts; [2],53.0 ± 12.6
same,Biodistribution: Bladder,SK-RC-52 xenografts; 8 h post-injection,7.43 ± 7.72 % ID/g
same,Biodistribution: Blood,SK-RC-52 xenografts; 8 h post-injection,0.13 ± 0.02 % ID/g
